# In ChEMBL document CHEMBL5376002, “A Hybrid Antimicrobial Peptide Targeting Staphylococcus aureus with a Dual Function of Inhibiting Quorum Sensing Signaling and an Antibacterial Effect” (J Med Chem, 2023):
# Active and inactive are the calls of the source. No cut-off for these calls is given here. Numbered stars: 1 amine (or outer) side, 2 acyl side, 3 side chain; on linkers, the order of the positions; unused ones are H or OH. Bridge positions count the residues as written; N and C are the ends. Square brackets hold non-standard residues; d marks the D form. Peptide text beside a SMILES is read from it. I, II: the chains in the order shown. X1 = O=C1CC([*:2])C(=O)N1CCCCCC(=O)[*:1]; Dab = NCC[C@H](N)C(=O)O
# Key:
# [1] = tested on: Staphylococcus aureus; assay: Inhibition of biofilm formation in Staphylococcus aureus at 0.78 to 1.56 uM incubated for 24 hrs by crystal violet staining based analysis; assay type: functional, organism-based; details: dose 0.78-1.56 µM
# [2] = tested on: Staphylococcus saprophyticus; assay: Bactericidal activity against Staphylococcus saprophyticus ATCC BAA-750 assessed as inhibition of bacterial growth incubated for 18 to 24 hrs; assay type: functional; details: time 18-24 hrs
# [3] = tested on: Escherichia coli; assay: Antibacterial activity against Escherichia coli ATCC 25922 assessed as inhibition of bacterial growth incubated for 18 to 24 hrs; assay type: functional; details: time 18-24 hrs
# [4] = tested on: Staphylococcus aureus; assay: Bactericidal activity against Staphylococcus aureus ATCC 6538p assessed as inhibition of bacterial growth incubated for 18 to 24 hrs; assay type: functional; details: time 18-24 hrs
# [5] = tested on: Streptococcus mutans; assay: Antibacterial activity against Streptococcus mutans UA159 assessed as inhibition of bacterial growth incubated for 18 to 24 hrs; assay type: functional; details: time 18-24 hrs
# [6] = tested on: Streptococcus mutans; assay: Antibacterial activity against Streptococcus mutans ATCC 25175 assessed as inhibition of bacterial growth incubated for 18 to 24 hrs; assay type: functional; details: time 18-24 hrs
# [7] = tested on: Staphylococcus aureus; assay: Bactericidal activity against Staphylococcus aureus ATCC 12600 assessed as inhibition of bacterial growth incubated for 18 to 24 hrs; assay type: functional; details: time 18-24 hrs
# [8] = tested on: Staphylococcus aureus; assay: Antivirulence activity against Staphylococcus aureus assessed as downregulation of RNAIII expression level at 1 to 100 uM incubated for 24 hrs by qRT-PCR analysis; assay type: functional, organism-based; details: dose 1-100 µM
# [9] = tested on: Staphylococcus aureus; assay: Antivirulence activity against Staphylococcus aureus assessed as downregulation of psm-alpha expression level at 1 to 100 uM incubated for 24 hrs by qRT-PCR analysis; assay type: functional, organism-based; details: dose 1-100 µM
# [10] = tested on: Escherichia coli; assay: Bactericidal activity against Escherichia coli ATCC 25922 assessed as inhibition of bacterial growth incubated for 18 to 24 hrs; assay type: functional; details: time 18-24 hrs
# [11] = tested on: Staphylococcus aureus; assay: Antibacterial activity against Staphylococcus aureus ATCC 43300 assessed as inhibition of bacterial growth incubated for 18 to 24 hrs; assay type: functional; details: time 18-24 hrs
# [12] = tested on: Staphylococcus epidermidis; assay: Bactericidal activity against Staphylococcus epidermidis ATCC 12228 assessed as inhibition of bacterial growth incubated for 18 to 24 hrs; assay type: functional; details: time 18-24 hrs
# [13] = tested on: Staphylococcus aureus; assay: Antibacterial activity against Staphylococcus aureus ATCC 6538p assessed as inhibition of bacterial growth incubated for 18 to 24 hrs; assay type: functional; details: time 18-24 hrs
# [14] = tested on: Staphylococcus aureus; assay: Antibacterial activity against Staphylococcus aureus ATCC 12600 assessed as inhibition of bacterial growth incubated for 18 to 24 hrs; assay type: functional; details: time 18-24 hrs
# [15] = tested on: Streptococcus pneumoniae; assay: Bactericidal activity against Streptococcus pneumoniae ATCC 49619 assessed as inhibition of bacterial growth incubated for 18 to 24 hrs; assay type: functional; details: time 18-24 hrs
# [16] = tested on: Staphylococcus saprophyticus; assay: Antibacterial activity against Staphylococcus saprophyticus ATCC BAA-750 assessed as inhibition of bacterial growth incubated for 18 to 24 hrs; assay type: functional; details: time 18-24 hrs
# [17] = tested on: Streptococcus mutans; assay: Bactericidal activity against Streptococcus mutans UA159 assessed as inhibition of bacterial growth incubated for 18 to 24 hrs; assay type: functional; details: time 18-24 hrs
# [18] = tested on: Erythrocyte; assay: Hemolytic activity in rat RBC assessed as hemolysis measured after 20 hrs; assay type: toxicity, cell-based
# [19] = tested on: Streptococcus mutans; assay: Bactericidal activity against Streptococcus mutans ATCC 25175 assessed as inhibition of bacterial growth incubated for 18 to 24 hrs; assay type: functional; details: time 18-24 hrs
# [20] = tested on: Streptococcus pneumoniae; assay: Antibacterial activity against Streptococcus pneumoniae ATCC 49619 assessed as inhibition of bacterial growth incubated for 18 to 24 hrs; assay type: functional; details: time 18-24 hrs
# [21] = tested on: Staphylococcus aureus; assay: Antivirulence activity against Staphylococcus aureus assessed as downregulation of hla expression level at 1 to 100 uM incubated for 24 hrs by qRT-PCR analysis; assay type: functional, organism-based; details: dose 1-100 µM
# [22] = tested on: Staphylococcus epidermidis; assay: Antibacterial activity against Staphylococcus epidermidis ATCC 12228 assessed as inhibition of bacterial growth incubated for 18 to 24 hrs; assay type: functional; details: time 18-24 hrs
# [23] = tested on: Staphylococcus aureus; assay: Bactericidal activity against Staphylococcus aureus ATCC 43300 assessed as inhibition of bacterial growth incubated for 18 to 24 hrs; assay type: functional; details: time 18-24 hrs
# [24] = tested on: RAW264.7; assay: Cytotoxicity against mouse RAW264.7 cells assessed as cell viability incubated for 48 hrs by MTT assay; assay type: functional
# [25] = tested on: RAW264.7; assay: Cytotoxicity against mouse RAW264.7 cells assessed as cell viability upto 125 uM incubated for 48 hrs by MTT assay; assay type: functional, cell-based
# [26] = Binding affinity to AgrC-I extra-loop-I (unknown origin) assessed as change in enthalpy incubated for 10 mins by isothermal titration calorimetry analysis
# [27] = species: Homo sapiens; assay: Binding affinity to AgrC-I extra-loop-III (unknown origin) assessed as change in entropy incubated for 10 mins by isothermal titration calorimetry analysis
# [28] = Binding affinity to AgrC-I extra-loop-I (unknown origin) assessed as dissociation constant incubated for 10 mins by isothermal titration calorimetry analysis
# [29] = Binding affinity to AgrC-I extra-loop-II (unknown origin) assessed as dissociation constant incubated for 10 mins by isothermal titration calorimetry analysis
# [30] = species: Homo sapiens; assay: Binding affinity to AgrC-I extra-loop-II (unknown origin) assessed as gibbs free energy change incubated for 10 mins by isothermal titration calorimetry analysis
# [31] = Binding affinity to AgrC-I extra-loop-III (unknown origin) assessed as change in enthalpy incubated for 10 mins by isothermal titration calorimetry analysis
# [32] = Binding affinity to AgrC-I extra-loop-II (unknown origin) assessed as change in enthalpy incubated for 10 mins by isothermal titration calorimetry analysis
# [33] = species: Homo sapiens; assay: Binding affinity to AgrC-I extra-loop-I (unknown origin) assessed as gibbs free energy change incubated for 10 mins by isothermal titration calorimetry analysis
# [34] = species: Homo sapiens; assay: Binding affinity to AgrC-I extra-loop-II (unknown origin) assessed as change in entropy incubated for 10 mins by isothermal titration calorimetry analysis
# [35] = species: Homo sapiens; assay: Binding affinity to AgrC-I extra-loop-I (unknown origin) assessed as change in entropy incubated for 10 mins by isothermal titration calorimetry analysis
# [36] = Binding affinity to AgrC-I extra-loop-III (unknown origin) assessed as dissociation constant incubated for 10 mins by isothermal titration calorimetry analysis
# [37] = species: Homo sapiens; assay: Binding affinity to AgrC-I extra-loop-III (unknown origin) assessed as gibbs free energy change incubated for 10 mins by isothermal titration calorimetry analysis
# [38] = tested on: Staphylococcus aureus; assay: Inhibition of biofilm formation in Staphylococcus aureus incubated for 24 hrs by crystal violet staining based microscopic analysis; assay type: functional, organism-based
# [39] = tested on: Cell membrane; assay: Induction of cell membrane damage in Staphylococcus aureus ATCC 6538p assessed as increase in fluorescent intensity incubated for 30 mins by PI staining based flow cytometry assay
# [40] = tested on: Cell membrane; assay: Induction of cell membrane damage in Staphylococcus aureus ATCC 6538p assessed as increase in nucleic acid leakage measured up to 30 mins by UV-spectrophotometer analysis; assay type: subcellular
MIC [3],MIC [5],MIC [6],MIC [11],MIC [13],MIC [14],MIC [16],MIC [20],MIC [22],Compound,inhibition [1],MBC [2],MBC [4],MBC [7],MBC [10],MBC [12],MBC [15],MBC [17],MBC [19],MBC [23],CC50 [24],further results
6.25 µM,6.25 µM,6.25 µM,6.25 µM,6.25 µM,6.25 µM,6.25 µM,12.5 µM,3.13 µM,H-IKNAWKAMIKAWY-OH,,12.5 µM,6.25 µM,6.25 µM,6.25 µM,3.13 µM,12.5 µM,25 µM,12.5 µM,12.5 µM,> 125 µM,Activity [25]: inactive
> 100 µM,12.5 µM,6.25 µM,> 100 µM,0.1 µM,0.1 µM,1.56 µM,0.78 µM,0.39 µM,CC1(C)S[C@@H]2[C@H](NC(=O)[C@H](N)c3ccccc3)C(=O)N2[C@H]1C(=O)O [AMPICILLIN],,1.56 µM,0.19 µM,0.19 µM,,0.39 µM,0.78 µM,12.5 µM,6.25 µM,,,
6.25 µM,6.25 µM,3.13 µM,6.25 µM,6.25 µM,6.25 µM,6.25 µM,12.5 µM,3.13 µM,CC[C@H](C)[C@H](NC(=O)CNC(=O)CCCCCN1C(=O)CC(SC[C@H](N)C(=O)NCC(=O)NCC(=O)N[C@H](C(=O)N[C@@H](CC(N)=O)C(=O)N[C@H]2CCNC(=O)[C@H](CC(C)C)NC(=O)[C@H](CC(C)C)NC(=O)[C@H](Cc3ccccc3)NC(=O)[C@H](C)NC2=O)[C@@H](C)CC)C1=O)C(=O)N[C@@H](CCCCN)C(=O)N[C@@H](CC(N)=O)C(=O)N[C@@H](C)C(=O)N[C@@H](Cc1c[nH]c2ccccc12)C(=O)N[C@@H](CCCCN)C(=O)N[C@@H](C)C(=O)N[C@@H](CCSC)C(=O)N[C@H](C(=O)N[C@@H](CCCCN)C(=O)N[C@@H](C)C(=O)N[C@@H](Cc1c[nH]c2ccccc12)C(=O)N[C@@H](Cc1ccc(O)cc1)C(=O)O)[C@@H](C)CC (stereo partly drawn) (I: GIKNAWKAMIKAWY-OH / II: H-CGGIN[Dab]AFLL; linker I:N-II:1 via X1; lactam II:6-II:C),,12.5 µM,6.25 µM,6.25 µM,6.25 µM,6.13 µM,12.5 µM,12.5 µM,3.13 µM,12.5 µM,105 µM,
3.13 µM,6.25 µM,6.25 µM,6.25 µM,3.13 µM,3.13 µM,3.13 µM,6.25 µM,1.56 µM,CC[C@H](C)[C@H](N)C(=O)N[C@@H](CC(N)=O)C(=O)N[C@@H](CCN)C(=O)N[C@@H](C)C(=O)N[C@@H](Cc1ccccc1)C(=O)N[C@@H](CC(C)C)C(=O)N[C@@H](CC(C)C)C(=O)NCC(=O)NCC(=O)NCC(=O)N[C@H](C(=O)N[C@@H](CCCCN)C(=O)N[C@@H](CC(N)=O)C(=O)N[C@@H](CC(C)C)C(=O)N[C@@H](Cc1c[nH]c2ccccc12)C(=O)N[C@@H](CCCCN)C(=O)N[C@@H](CCCCN)C(=O)N[C@@H](CCSC)C(=O)N[C@H](C(=O)N[C@@H](CCCCN)C(=O)N[C@@H](CC(C)C)C(=O)N[C@@H](Cc1c[nH]c2ccccc12)C(=O)N[C@@H](Cc1ccc(O)cc1)C(=O)O)[C@@H](C)CC)[C@@H](C)CC (H-IN[Dab]AFLLGGGIKNLWKKMIKLWY-OH),Active,3.13 µM,6.25 µM,6.25 µM,6.25 µM,3.13 µM,12.5 µM,12.5 µM,6.25 µM,12.5 µM,,deltaH [26]: 9.06 kcal/mol; -TdeltaS [27]: 70.6 kcal/mol; Kd [28]: 2.05 nM; Kd [29]: 3.78 mM; deltaG [30]: -3.31 kcal/mol; deltaH [31]: -80 kcal/mol; deltaH [32]: -15.6 kcal/mol; deltaG [33]: -11.8 kcal/mol; -TdeltaS [34]: 12.3 kcal/mol; -TdeltaS [35]: -20.9 kcal/mol; Kd [36]: 139 nM; deltaG [37]: -9.36 kcal/mol

Compound,MIC [3],MIC [5],MIC [6],MIC [11],MIC [13],MIC [14],MIC [16],MIC [20],MIC [22],inhibition [1],MBC [2],MBC [4],MBC [7],MBC [10],MBC [12],MBC [15],MBC [17],MBC [19],MBC [23],CC50 [24],further results
H-LGAKAGGGIKNLWKKMIKLWY-OH,6.25 µM,6.25 µM,3.13 µM,6.25 µM,3.13 µM,3.13 µM,3.13 µM,6.25 µM,1.56 µM,Active,6.25 µM,3.13 µM,3.13 µM,12.5 µM,3.13 µM,25 µM,6.25 µM,3.13 µM,6.25 µM,,Activity [8]: inactive; Activity [9]: inactive; Activity [18]: Non-Toxic; Activity [21]: inactive
H-IKNLWKKMIKLWY-OH,3.13 µM,6.25 µM,3.13 µM,6.25 µM,3.13 µM,3.13 µM,3.13 µM,6.25 µM,1.56 µM,,6.25 µM,3.13 µM,6.25 µM,3.13 µM,3.13 µM,12.5 µM,12.5 µM,12.5 µM,6.25 µM,> 125 µM,deltaH [26]: inactive; inhibition [38]: Active; -TdeltaS [27]: -15.6 kcal/mol; Kd [28]: 0.001 nM; Activity [39]: Active; Kd [29]: 1e-09 mM; Activity [8]: inactive; Activity [9]: inactive; deltaG [30]: -16.4 kcal/mol; deltaH [31]: -0.775 kcal/mol; Activity [25]: inactive; deltaH [32]: -44.2 kcal/mol; deltaG [33]: -16.4 kcal/mol; Activity [40]: Active; -TdeltaS [34]: 27.9 kcal/mol; -TdeltaS [35]: -16.3 kcal/mol; Activity [18]: Non-Toxic; Kd [36]: 0.001 nM; Activity [21]: inactive; deltaG [37]: -16.4 kcal/mol
